Here are results for 29 molecules from patent publication US20090105305A1, “Therapeutic Agents - 550” (AstraZeneca AB, priority 2006, published 2009).

The target of the first experiment is T1, human Fatty Acid Synthase (Homo sapiens, UniProt P49327).
T1 construct: made in house
T1 sequence (P49327 whole entry): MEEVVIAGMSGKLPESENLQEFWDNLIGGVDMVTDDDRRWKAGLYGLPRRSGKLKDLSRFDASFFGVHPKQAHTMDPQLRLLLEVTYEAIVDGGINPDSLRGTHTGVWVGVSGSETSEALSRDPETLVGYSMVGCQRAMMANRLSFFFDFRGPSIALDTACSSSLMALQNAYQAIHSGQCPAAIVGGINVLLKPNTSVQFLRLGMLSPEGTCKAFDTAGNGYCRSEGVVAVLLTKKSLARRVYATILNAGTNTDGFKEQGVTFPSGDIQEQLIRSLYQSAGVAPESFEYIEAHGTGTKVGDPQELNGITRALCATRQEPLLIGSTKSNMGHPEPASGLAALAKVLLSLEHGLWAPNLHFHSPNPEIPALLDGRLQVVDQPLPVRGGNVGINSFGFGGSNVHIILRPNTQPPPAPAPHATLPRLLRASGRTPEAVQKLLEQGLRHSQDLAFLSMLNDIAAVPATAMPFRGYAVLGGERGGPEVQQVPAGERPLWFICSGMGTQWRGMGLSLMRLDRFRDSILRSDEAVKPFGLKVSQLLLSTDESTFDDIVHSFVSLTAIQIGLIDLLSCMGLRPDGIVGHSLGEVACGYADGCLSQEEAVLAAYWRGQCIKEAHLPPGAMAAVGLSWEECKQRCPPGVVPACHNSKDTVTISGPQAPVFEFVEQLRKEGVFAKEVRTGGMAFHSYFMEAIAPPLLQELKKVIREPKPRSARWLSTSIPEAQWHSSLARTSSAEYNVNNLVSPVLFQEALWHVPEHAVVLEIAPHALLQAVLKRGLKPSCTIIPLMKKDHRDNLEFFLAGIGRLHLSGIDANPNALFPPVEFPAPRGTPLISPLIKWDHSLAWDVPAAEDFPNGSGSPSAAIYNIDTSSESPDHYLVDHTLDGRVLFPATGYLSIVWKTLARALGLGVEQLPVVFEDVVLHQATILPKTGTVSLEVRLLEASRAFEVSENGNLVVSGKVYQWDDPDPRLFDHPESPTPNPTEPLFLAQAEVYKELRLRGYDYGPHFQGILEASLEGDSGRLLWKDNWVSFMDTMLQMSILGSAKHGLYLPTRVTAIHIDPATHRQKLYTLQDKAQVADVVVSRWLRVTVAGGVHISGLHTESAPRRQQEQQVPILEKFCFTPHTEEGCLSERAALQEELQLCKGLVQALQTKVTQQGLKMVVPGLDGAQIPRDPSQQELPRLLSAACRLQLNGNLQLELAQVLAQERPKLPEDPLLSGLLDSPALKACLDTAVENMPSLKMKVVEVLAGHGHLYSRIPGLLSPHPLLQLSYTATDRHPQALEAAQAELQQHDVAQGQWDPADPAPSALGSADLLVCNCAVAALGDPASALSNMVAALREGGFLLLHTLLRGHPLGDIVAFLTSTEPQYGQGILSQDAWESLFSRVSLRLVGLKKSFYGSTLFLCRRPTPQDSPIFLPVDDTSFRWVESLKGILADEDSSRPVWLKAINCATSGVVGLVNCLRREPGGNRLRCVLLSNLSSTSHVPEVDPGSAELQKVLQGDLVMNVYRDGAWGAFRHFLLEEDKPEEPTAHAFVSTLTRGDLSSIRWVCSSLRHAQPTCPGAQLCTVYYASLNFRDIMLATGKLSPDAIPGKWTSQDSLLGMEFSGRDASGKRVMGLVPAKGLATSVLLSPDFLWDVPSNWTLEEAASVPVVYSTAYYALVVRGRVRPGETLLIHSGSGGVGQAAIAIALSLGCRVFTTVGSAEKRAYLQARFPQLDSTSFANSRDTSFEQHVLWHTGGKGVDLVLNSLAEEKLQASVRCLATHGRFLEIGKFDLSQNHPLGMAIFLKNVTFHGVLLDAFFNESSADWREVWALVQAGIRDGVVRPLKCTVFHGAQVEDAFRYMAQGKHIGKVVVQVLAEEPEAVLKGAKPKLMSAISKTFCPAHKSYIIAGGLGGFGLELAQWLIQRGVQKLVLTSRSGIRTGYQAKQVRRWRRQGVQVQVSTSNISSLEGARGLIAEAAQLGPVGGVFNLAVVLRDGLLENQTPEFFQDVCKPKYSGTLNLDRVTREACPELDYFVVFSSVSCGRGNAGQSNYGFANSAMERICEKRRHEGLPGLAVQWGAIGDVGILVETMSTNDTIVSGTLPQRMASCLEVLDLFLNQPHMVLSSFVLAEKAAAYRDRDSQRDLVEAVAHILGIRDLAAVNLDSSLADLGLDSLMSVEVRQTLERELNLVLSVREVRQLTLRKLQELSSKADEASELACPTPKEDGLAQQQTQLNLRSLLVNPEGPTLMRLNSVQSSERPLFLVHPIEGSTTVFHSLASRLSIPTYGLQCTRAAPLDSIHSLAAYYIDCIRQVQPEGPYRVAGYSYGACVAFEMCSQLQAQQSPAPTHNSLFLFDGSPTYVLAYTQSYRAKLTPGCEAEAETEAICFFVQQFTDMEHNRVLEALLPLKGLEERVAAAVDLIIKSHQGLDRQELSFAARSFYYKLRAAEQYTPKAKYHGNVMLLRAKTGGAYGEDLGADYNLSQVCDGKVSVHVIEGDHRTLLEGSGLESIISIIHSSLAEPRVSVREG
Nature of the experiment: Human FAS enzyme assay (decrease in NADPH fluorescence). The class given is biochemical. The note with it: % inhibition at a concentration of 100 micromolar. An excerpt:
The compounds of the present invention are Fatty Acid Synthase inhibitors. […] Human and Rat FAS Enzyme Assay.
Fatty acid synthase is an enzyme complex that harbours seven enzymatic activities catalysing the reductive synthesis of long chain fatty acids from acetyl CoA and malonyl CoA to palmitate. When acetyl CoA and malonyl CoA are forming palmitate NADPH is consumed forming NADP. Since NADPH is fluorescent but not NADP the reaction can be measured by analysing the decrease in fluorescence.
Compounds were added to a black 384 well plate (Matrix) in a volume of 5 μl consisting of 20% DMSO and 80% Tris buffer pH 7.5, at a top concentration of 1 mM. NADPH, 30 μl of 166.6 μM, formulated in assay buffer (0.1M Tris ph7.5, 0.1 mM EDTA, 1 mM glutathione, 0.05% BSA), was then added to all of the wells of the plate. Fatty acid synthase Human or rat enzyme (0.4 μg, produced in house), dissolved in 20 mM Tris/HCl pH 7.5, 5 mM BOG, 1 mM TCEP, 10% glycerol, 1 mM EDTA, 150 mM NaCl, was then added to the plate in a volume of […]. Enzyme was added to all but the last two columns of the plate, to which, 10 μl of assay buffer was added (0.1M Tris ph7.5, 0.1 mM EDTA, 1 mM glutathione, 0.05% BSA) to provide a no enzyme assay control. Following a 15-minute incubation period, at room temperature, the plates were read on an Envision plate reader using 340 nm excitation and 460 nm emission filters. This served as a time zero background read. Substrates (an equal mix of both malonyl and acetyl CoA) were then added to the plates in a total volume of 5 μl. The concentrations of malonyl and acetyl CoA in the mixture were 500 μM and 150 μM respectively. Both were prepared as 10 mM stock solutions in distilled water and were subsequently diluted to working concentrations in assay buffer. Plates were then incubated for a further 60 minutes, at room temperature, before being read again on the Envision reader using the same parameters as previously used. The data was analysed by subtracting the background time zero data from that generated following the final 60 minute incubate and the percent inhibition compared to the maximum and minimum assay controls was determined. Sigmoid curves were fitted using Origin 7.5 Client software and IC50 values were determined.
The term inhibition denotes the drop in the measured response relative to a control, in per cent. For the molecule `COc1ccccc1S(=O)(=O)Nc1cc(C(=O)N2CCC(c3ccc(C#N)cc3)CC2)ccc1C` [Example 25, N-[5-[4-(4-cyanophenyl)piperidine-1-carbonyl]-2-methyl-phenyl]-2-methoxy-benzenesulfonamide], the inhibition at 100 µM came out at 87%.

Take `Cc1cc(C2CCN(C(=O)c3ccc(C)c(NS(C)(=O)=O)c3)CC2)ccc1C#N` [Example 217, N-[5-[4-(4-cyano-3-methylphenyl)piperidine-1-carbonyl]-2-methylphenyl]methane-sulfonamide]: the inhibition at 100 µM was 60%.

Take `Cc1ccc(C(=O)N2CCC(c3ccc(C#N)cc3)CC2)cc1NS(=O)(=O)c1cccc(C(=O)N(C)C)c1` [Example 82, 3-[[5-[4-(4-cyanophenyl)piperidine-1-carbonyl]-2-methyl-phenyl]sulfamoyl]-N,N-dimethyl-benzamide]: the inhibition at 100 µM was found to be 93%.

Regarding `COCCNc1ccc(S(=O)(=O)Nc2cc(C(=O)N3CCC(c4ccc(C#N)cc4)CC3)ccc2C)cn1` [Example 103, N-[5-[4-(4-cyanophenyl)piperidine-1-carbonyl]-2-methyl-phenyl]-6-(2-methoxyethylamino)pyridine-3-sulfonamide], the inhibition at 100 µM was 98%.

For `Cc1ccc(NS(=O)(=O)CC(C)C)cc1C(=O)N1CCC(c2ccc(C#N)cc2)CC1` [Example 57, N-[3-[4-(4-cyanophenyl)piperidine-1-carbonyl]-4-methyl-phenyl]-2-methyl-propane-1-sulfonamide], the inhibition at 100 µM came to 94%.

On to `Cc1ccc(C(=O)N2CCC(c3ccc(S(C)(=O)=O)cc3)CC2)cc1NS(=O)(=O)Cc1ccccc1` [Example 193, N-[2-methyl-5-[4-(4-methylsulfonylphenyl)piperidine-1-carbonyl]phenyl]-1-phenyl-methanesulfonamide], for which the inhibition at 100 µM was found to be 70%.

For the molecule `Cc1ccc(NS(=O)(=O)C(C)C)cc1C(=O)N1CCC(c2ccc(C#N)cc2)CC1` [Example 32, N-[3-[4-(4-cyanophenyl)piperidine-1-carbonyl]-4-methyl-phenyl]propane-2-sulfonamide], the inhibition at 100 µM stood at 85%.

Turning to `Cc1ccc(C(=O)N2CCC(c3ccc(C#N)cc3)CC2)cc1NS(=O)(=O)C1CCN(C)CC1` [Example 125, N-[5-[4-(4-cyanophenyl)piperidine-1-carbonyl]-2-methyl-phenyl]-1-methyl-piperidine-4-sulfonamide], the inhibition at 100 µM stood at 98%.

For the molecule `COCC(=O)NCCS(=O)(=O)Nc1cc(C(=O)N2CCC(c3ccc(C#N)cc3)CC2)ccc1C` [Example 87, N-[2-[[5-[4-(4-cyanophenyl)piperidine-1-carbonyl]-2-methyl-phenyl]sulfamoyl]ethyl]-2-methoxy-acetamide], the inhibition at 100 µM came out at 82%.

On to `Cc1ccc(C(=O)N2CCC(c3ccc(C#N)cc3)CC2)cc1NS(=O)(=O)c1cnoc1C` [Example 95, N-[5-[4-(4-cyanophenyl)piperidine-1-carbonyl]-2-methyl-phenyl]-5-methyl-1,2-oxazole-4-sulfonamide], for which the inhibition at 100 µM was determined as 73%.

For the molecule `Cc1ccc(C(=O)N2CCC(c3ccc(Oc4ncccn4)cc3)CC2)cc1NS(C)(=O)=O` [Example 190, N-[2-methyl-5-[4-(4-pyrimidin-2-yloxyphenyl)piperidine-1-carbonyl]phenyl]methanesulfonamide], the inhibition at 100 µM was 88%.

For the molecule `Cc1ccc(C(=O)N2CCC(O)(c3ccc(Br)cc3)CC2)cc1NS(C)(=O)=O` [Example 200, N-[5-[4-(4-bromophenyl)-4-hydroxypiperidine-1-carbonyl]-2-methylphenyl]methane-sulfonamide], the inhibition at 100 µM is 48%.

Consider `Cc1ccc(C(=O)N2CCC(c3ccc(C#N)cc3)CC2)cc1NS(=O)(=O)CS(C)(=O)=O` [Example 195, N-[5-[4-(4-cyanophenyl)piperidine-1-carbonyl]-2-methylphenyl]-1-methylsulfonyl-methanesulfonamide], for which the inhibition at 100 µM was found to be 72%.

As for `CCCS(=O)(=O)Nc1cc(C(=O)N2CCC(c3ccc(C#N)cc3)CC2)ccc1C` [Example 5, N-[5-[4-(4-cyanophenyl)piperidine-1-carbonyl]-2-methyl-phenyl]propane-1-sulfonamide], the inhibition at 100 µM was 92%.

As to `CCS(=O)(=O)N1CCC(S(=O)(=O)Nc2cc(C(=O)N3CCC(c4ccc(C#N)cc4)CC3)ccc2C)CC1` [Example 122, N-[5-[4-(4-cyanophenyl)piperidine-1-carbonyl]-2-methyl-phenyl]-1-ethylsulfonyl-piperidine-4-sulfonamide], the inhibition at 100 µM is 98%.

Consider `Cc1ccc(C(=O)N2CCC(c3ccc(NS(C)(=O)=O)cc3)CC2)cc1NS(C)(=O)=O` [Example 221, N-[4-[1-(3-methanesulfonamido-4-methylbenzoyl)piperidin-4-yl]phenyl]methane-sulfonamide], for which the inhibition at 100 µM worked out at 74%.

As for `CNC(=O)Cc1ccc(C2CCN(C(=O)c3ccc(C)c(NS(C)(=O)=O)c3)CC2)cc1` [Example 240, 2-[4-[1-(3-methanesulfonamido-4-methylbenzoyl)piperidin-4-yl]phenyl]-N-methylacetamide], the inhibition at 100 µM came out at 63.9%.

As to `Cc1ccc(C(=O)N2CCC(c3ccc(CNS(=O)(=O)CC(C)C)cc3)CC2)cc1NS(C)(=O)=O` [Example 238, N-[[4-[1-(3-methanesulfonamido-4-methylbenzoyl)piperidin-4-yl]phenyl]methyl]-2-methylpropane-1-sulfonamide], the inhibition at 100 µM amounted to 81.3%.

In the case of `Cc1ccc(C(=O)N2CCC(c3ccc(C#N)cc3)CC2)cc1NS(=O)(=O)CCN` [Example 72, 2-amino-N-[5-[4-(4-cyanophenyl)piperidine-1-carbonyl]-2-methyl-phenyl]ethanesulfonamide], the inhibition at 100 µM turned out to be 93%.

As for `Cc1ccc(C(=O)N2CCC(c3ccc(Cl)cc3)CC2)cc1NS(C)(=O)=O` [Example 155, N-[5-[4-(4-chlorophenyl)piperidine-1-carbonyl]-2-methyl-phenyl]methanesulfonamide], the inhibition at 100 µM was determined as 84%.

With `Cc1ccc(C(=O)N2CCC(c3ccc(C#N)cc3)CC2)cc1NS(=O)(=O)CCCNC(C)C` [Example 73, N-[5-[4-(4-cyanophenyl)piperidine-1-carbonyl]-2-methyl-phenyl]-3-(propan-2-ylamino)propane-1-sulfonamide], the inhibition at 100 µM is 94%.

As for `Cc1ccc(C(=O)N2CCC(c3ccc(-c4ccccn4)cc3)CC2)cc1NS(C)(=O)=O` [Example 173, N-[2-methyl-5-[4-(4-pyridin-2-ylphenyl)piperidine-1-carbonyl]phenyl]methanesulfonamide], the inhibition at 100 µM amounted to 64%.

For the molecule `Cc1ccc(C(=O)N2CCC(c3ccc(C#N)cc3)CC2)cc1NS(=O)(=O)C(C)(C)Cl` [Example 224, 2-chloro-N-[5-[4-(4-cyanophenyl)piperidine-1-carbonyl]-2-methylphenyl]propane-2-sulfonamide], the inhibition at 100 µM was determined as 108%.

Take `Cc1ccc(C(=O)N2CCC(c3ccc(C#N)cc3)CC2)cc1NS(=O)(=O)CCNS(C)(=O)=O` [Example 77, N-[5-[4-(4-cyanophenyl)piperidine-1-carbonyl]-2-methyl-phenyl]-2-methanesulfonamido-ethanesulfonamide]: the inhibition at 100 µM is 98%.

Staying with this experiment, now noted: compounds excluded from the claims by proviso.
For the molecule `Cc1ccc(C(=O)N2CCC(c3ccccc3C#N)CC2)cc1NS(C)(=O)=O` [N-[5-[4-(2-cyanophenyl)piperidine-1-carbonyl]-2-methylphenyl]methanesulfonamide], the “IC50s in the range of about 0.001 μM to about 30 μM” value (“IC50s in the range” below) is “do not have IC50s in the range of about 0.001 μM to about 30 μM”.

`C#Cc1cccc(C2CCN(C(=O)c3ccc(C)c(NS(C)(=O)=O)c3)CC2)c1` [N-[5-[4-(3-ethynylphenyl)piperidine-1-carbonyl]-2-methylphenyl]methanesulfonamide]: the “IC50s in the range” value is “do not have IC50s in the range of about 0.001 μM to about 30 μM”.

For `Cc1ccc(C(=O)N2CCC(c3cccc(F)c3)CC2)cc1NS(C)(=O)=O` [N-[5-[4-(3-fluorophenyl)piperidine-1-carbonyl]-2-methylphenyl]methanesulfonamide], the “IC50s in the range” value is on record as “do not have IC50s in the range of about 0.001 μM to about 30 μM”.

In the case of `Cc1ccc(C(=O)N2CCC(O)(c3ccccc3F)CC2)cc1NS(C)(=O)=O` [N-[5-[4-(2-fluorophenyl)-4-hydroxypiperidine-1-carbonyl]-2-methylphenyl]methanesulfonamide], the “IC50s in the range” value is listed as “do not have IC50s in the range of about 0.001 μM to about 30 μM”.

Take `CS(=O)(=O)Nc1ccc(F)c(C(=O)N2CCC(c3ccc(C#N)cc3)CC2)c1` [N-[3-[4-(4-cyanophenyl)piperidine-1-carbonyl]-4-fluorophenyl]methanesulfonamide]: the “IC50s in the range” value is reported as “do not have IC50s in the range of about 0.001 μM to about 30 μM”.
